Measurements reported in PMC8795149, “Characterization of a novel non-steroidal glucocorticoid receptor agonist optimized for topical treatment” (Scientific Reports, 2022).

Columns and labels:
GR = biological target: T1, GR (Homo sapiens, UniProt P04150); test: Transrepression assay, PMA-induced MMP1 promoter luciferase in HeLa cells; type: cell-based; set-up: endogenous in cells; host or cells: HeLa (ATCC) stably expressing MMP1- or MMTV-promoter luciferase; conditions: for EC50: 18 h, geometric mean
T1 sequence (P04150 1-777): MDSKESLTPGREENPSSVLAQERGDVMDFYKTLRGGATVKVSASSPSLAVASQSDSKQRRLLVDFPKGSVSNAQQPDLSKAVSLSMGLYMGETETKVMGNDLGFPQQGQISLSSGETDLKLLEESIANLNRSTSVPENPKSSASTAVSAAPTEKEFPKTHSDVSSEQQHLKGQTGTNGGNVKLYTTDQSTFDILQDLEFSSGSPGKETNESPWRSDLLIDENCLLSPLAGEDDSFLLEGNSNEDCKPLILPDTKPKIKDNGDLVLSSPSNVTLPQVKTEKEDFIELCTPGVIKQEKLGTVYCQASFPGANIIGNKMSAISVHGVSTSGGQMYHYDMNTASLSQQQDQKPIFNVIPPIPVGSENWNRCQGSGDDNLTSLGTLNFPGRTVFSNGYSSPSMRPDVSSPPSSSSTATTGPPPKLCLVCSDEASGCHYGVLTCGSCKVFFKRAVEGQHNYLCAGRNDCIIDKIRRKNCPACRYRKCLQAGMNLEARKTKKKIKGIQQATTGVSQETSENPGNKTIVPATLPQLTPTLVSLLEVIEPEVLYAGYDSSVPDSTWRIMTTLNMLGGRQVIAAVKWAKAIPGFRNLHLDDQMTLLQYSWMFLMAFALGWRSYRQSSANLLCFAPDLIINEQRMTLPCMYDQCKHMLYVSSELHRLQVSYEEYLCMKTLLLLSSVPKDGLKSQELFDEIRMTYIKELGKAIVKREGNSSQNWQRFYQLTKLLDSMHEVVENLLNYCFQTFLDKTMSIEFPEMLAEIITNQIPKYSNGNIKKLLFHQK
Method: Assays were adopted from a method reported by Schäcke et al.[39] and HeLa cells were obtained from the American Type Culture Collection (ATCC). Transrepression assay: A HeLa cell line stably expressing luciferase under the control of the human Matrix Metallopeptidase 1 (MMP1) promoter was generated. Upon binding to the GR, […], preventing it from binding the MMP1 promoter, resulting in inhibition of luciferase transcription and activity. Briefly, cells were incubated in culture medium containing charcoal-filtered fetal bovine serum with 5 nM PMA (phorbol 12-myristate 13-acetate) for 18 h with or without test compounds. Then, luciferase activity was detected luminometrically after addition of specific substrate to the cells.
IC50 of test compounds was determined by 10-point titrations in duplicates. IC50 values and other parameters were calculated by sigmoidal curve fitting in Assay Explorer.

minipig skin = test: Local tolerance study in minipigs (skin atrophy); type: in vivo; conditions: for Discoloration of application sites: 4 weeks topical; for Reduction in epidermal thickness: 4 weeks, vs untreated and vehicle controls
Method: 5 male Göttingen SPF minipigs (5–7 months old; body weight 12–15 kg) were obtained from Ellegaard Göttingen Minipigs A/S, Dalmose, Denmark.
Each animal was treated for 6 h daily over 28 days with 25 µL of the following topical formulations on an application area of 2.5 cm × 2.5 cm: Vehicle (transcutol:acetone (1:9) with 10% hydroxy-propyl-cellulose); Dermovate cream (CP 0.05%), CP 0.05% in vehicle; Betnovate cream (BMV 0.1%); BMV 0.1% in vehicle; LEO 134310 2% in vehicle. One test field on each animal remained untreated.
Formulations were spread uniformly over the indicated clipped area and covered with porous gauze dressing. At the end of each exposure period all application site as well as the untreated area were rinsed with a mild soap (Abena Mild cream soap, Abena A/S, Denmark) in water and dried with a paper towel.
Skin biopsies were taken from anaesthetized animals 24 h after the last treatment. Samples for histopathological examination were fixed in phosphate buffered neutral 4% formaldehyde and stained with H&E. Mean arithmetic epidermal thickness was determined by measuring epidermal area, excluding stratum corneum, and dividing this area with the length of the epidermis. All measurements were performed on H&E stained and scanned slides using the Visiopharm software.

[1] = test system: FKBP5 mRNA (GR target engagement); test: Human skin explant, FKBP5 gene expression; type: cell-based; conditions: human skin explants; for FKBP5 Emax / FKBP5 Relative ED50 (API concentration in dosing solution): topical, 24 h; for FKBP5 Relative ED50 (API concentration in dosing solution): weighted geometric mean ± SD
Method: NativeSkin models (NS002) were purchased from Genoskin, France. Human skin samples from abdominal reduction surgery were obtained by Genoskin from donors upon written informed consent. Full ethical approval for the study protocol was obtained from the French ethical research committee (Comité de Protection des Personnes), and authorization was given by the French Ministry of Research. The study was conducted according to the Declaration of Helsinki. 8 mm punch biopsies were excised and embedded in a fibrin-based matrix in transwells and a silicone ring was firmly attached to the surface covering the outer edge of the skin biopsy to prevent lateral diffusion of topically applied formulations. Skin models were cultured in a defined hydrocortisone- and serum-free medium provided by Genoskin.
LEO 134310 and reference glucocorticoids were dissolved in propylene carbonate and tested at 4 concentrations in five- or tenfold titrations. Compounds were applied in duplicates or triplicates on the skin surface (0.5 cm^2) in a volume of 2 µL and incubated for 24 h. Vehicle and untreated samples were included for basal level of expression.
RNA was extracted and qPCR was performed using TaqMan gene expression assays (FKBP5-Hs01561006_m1, TSC22D3 (GILZ)-Hs00608272_m1, TXNIP-Hs01006900_g1, ACTB-Hs99999903_m1, PPIA-Hs99999904_m1, GAPDH-Hs99999905_m1). Gene expression of FKBP5,TSC22D3 (GILZ), and TXNIP was normalized to the geometric mean of the reference genes ACTB, PPIA and GAPDH.
Doses were expressed as compound (API) concentrations (µg/mL) in the applied formulations. Relative upregulation of FKBP5 was estimated as − fold to vehicle treated control. Effective doses (Emax and ED50) were determined from a sigmoid Emax model in Phoenix64 version 8.0, Pharsight, Certara. Mean values and standard deviation of Emax and ED50 were calculated by weighing individual experiments based on the intra- and inter-experiment variability.

[2] = CP 0.05%, BMV 0.1%, 6 h daily semi-occlusion

Structure (SMILES) | Emax (GR) [%] | EC50 (GR) [nM] | Discoloration of application sites (minipig skin) | Reduction in epidermal thickness (minipig skin; [2]) | FKBP5 Emax [1] | FKBP5 Relative ED50 (API concentration in dosing solution) [1] | Transrepression Emax (GR) [%] | Reduction in epidermal thickness (minipig skin; LEO 134310 2%, 6 h daily) | Higher dose needed to achieve similar level of FKBP5 induction as BMV [1]
CCCCC(=O)O[C@]1(C(=O)CO)[C@@H](C)C[C@H]2[C@@H]3CCC4=CC(=O)C=C[C@]4(C)[C@@]3(F)[C@@H](O)C[C@@]21C [BMV, Betamethasone Valerate] | 78 | 0.57 | notable discoloration was observed in most application sites | 30–40% | 5.6 ± 4.9 fold to control | 9.5 ± 6.9 µg/mL | – | – | –
CCC(=O)O[C@]1(C(=O)CCl)[C@@H](C)C[C@H]2[C@@H]3CCC4=CC(=O)C=C[C@]4(C)[C@@]3(F)[C@@H](O)C[C@@]21C [CP, Clobetasol Propionate] | 90 | 0.064 | notable discoloration was observed in most application sites | 30–40% | 6.9 ± 3.1^NS fold to control | 0.52 ± 0.06^NS µg/mL | – | – | –
C[C@H](NC(=O)[C@H]1CCCO1)[C@H](Oc1ccc(C(=O)O[C@H]2CCCN(C(=O)[C@H]3COC(=O)C3)C2)cc1)c1ccc(C2CC2)cc1 [LEO 134310] | – | 1.2 | – | – | 7.2 ± 2.7^NS fold to control | 270 ± 130 µg/mL | 100 | did not result in any significant reduction in epidermal thickness | approximately 30 fold
